Data reported in patent US7795315B2, “N-(2-amino-phenyl)-amide derivatives” (Hoffman-La Roche Inc., priority 2008, dated 2010).

Experiments:
Format in all cases: cell-based
[1] = tested on: klf2 promoter-luciferase construct in A204 cells; assay: klf2 reporter gene induction (p21 versus klf2 selectivity); conditions: SNDX-275 p21/klf2 ratio defined as 1.0; for p21/klf2 (RP3): relative selectivity compared with SNDX-275: 3 micromolar; for p21/klf2 (RP10): relative selectivity compared with SNDX-275: 10 micromolar
Description: (§1) The novel compounds of the present invention were tested for their ability to induce p21 gene expression using a reporter gene assay involving HeLa cells transfected with a p21 promoter-luciferase construct. The p21 promoter contained the Sp1/Sp3 binding site for HDAC but not the upstream p53 binding site. Briefly, the day before transfection, HeLa cells were seeded at 11,000 cells/well in a 96-well culture plate and incubated at 37 degrees Celsius in 5% CO2 overnight. For transfection, the medium was removed and replaced with 100 microliters/well transfection media previously prepared as follows: 5 microliters serum-free DMEM, 0.15 microliters Fugene 6 reagent, 40 ng p21-luc, 10 ng GFP were mixed gently and incubated at room temperature for 30 minutes; then 98 microliters DMEM (with 10% FBS, 1% penicillin and streptomycin) was added to the DNA:Fugene 6 reagent complex and mixed gently. After incubating the cells for 24 hours at 37 degrees Celsius in 5% CO2, fresh media and test compounds were added to the wells and the cells further incubated for 15 hours at 37 degrees Celsius in 5% CO2. Cells were lysed by adding 80 microliters/well of a cell culture lysis reagent (Promega). 50 microliters of each lysate was taken for GFP detection using an excitation wavelength of 486 nm and detection at 527 nm. 100 microliters Luciferase assay reagent (Promega) was then added to every 20 microliters cell lysate for luminometer detection. […] Induction activity for specific representative compounds can be found in Table 4.
The novel compounds of the present invention were tested for their ability to induce klf2 gene expression using a reporter gene assay involving A204 cells transfected with a klf2 promoter-luciferase construct. The klf2 promoter contained the MEF2 binding site for HDAC3/class IIa HDAC complex. Briefly, the day before transfection, A204 cells were seeded at 11,000 cells/well in a 96-well culture plate and incubated at 37 degrees Celsius in 5% CO2 overnight. For transfection, the medium was removed and replaced with 100 microliters/well transfection media previously prepared as follows: 5 microliters serum-free DMEM, 0.15 microliters Fugene 6 reagent, 40 ng klf2-luc, 10 ng GFP were mixed gently and incubated at room temperature for 30 minutes; then 98 microliters DMEM (with 10% FBS, 1% penicillin and streptomycin) was added to the DNA:Fugene 6 reagent complex and mixed gently. After incubating the cells for 24 hours at 37 degrees Celsius in 5% CO2, fresh media and test compounds were added to the wells and the cells further incubated for 15 hours at 37 degrees Celsius in 5% CO2. Finally, 10 ng/ml TNF-α was added and the cells further incubated for 4 hours. Cells were lysed by adding 80 microliters/well of a cell culture lysis reagent (Promega). 50 microliters of each lysate was taken for GFP detection using an excitation wavelength of 486 nm and detection at 527 nm. 100 microliters Luciferase assay reagent (Promega) was then added to every 20 microliters cell lysate for luminometer detection.

[2] = tested on: p21 promoter-luciferase construct in HeLa cells; assay: p21 reporter gene induction; conditions: 3 micromolar, 15 hours, relative to SNDX-275
Description: as §1

[3] = tested on: HCT-116 colon cancer cells; assay: Antiproliferative activity, growth inhibition (MTS/WST assay); conditions: Homo sapiens, 72 hour growth inhibition, read-out: GI50 HCT116
Description: The novel compounds of the present invention were tested for their ability to inhibit growth of various cancer cell lines (HeLa, MCF7, U2OS, HepG2, HL60, HCT-116) using in vitro growth inhibition assays described below.
Cells were seeded in 96-well culture plates (200 microliters/well at different seeding concentrations depending on cell type) and incubated overnight at 37 degrees Celsius in 5% CO2. After adding compound dilutions to the cells (DMSO concentration kept below 0.5%), the cells were incubated at 37 degrees Celsius in 5% CO2 for 72 hours. The effects on proliferation were determined by addition of MTS reagent (Promega) according to the manufacturer's instruction, followed by incubation for 2 hours at 37 degrees Celsius in 5% CO2, and finally recording the absorbance at 490 nm using an ELISA plate reader.
Similar to MTS assay except that the developer is the CCK-8 reagent (Dojindo) and the plate reader is set to 450 nm absorbance.
GI50 values against HCT-116 colon cancer cells for specific representative compounds can be found in Table 4.

Row | GI50 [3] [nM] | Structure (SMILES) | p21/klf2 (RP3): relative selectivity compared with SNDX-275 [1] | p21/klf2 (RP10): relative selectivity compared with SNDX-275 [1] | p21 (RP3): relative induction potency compared with SNDX-275 [2] [%]
1 | 1000 | Nc1ccccc1NC(=O)/C=C/c1ccc(C(NCCN2CCOCC2)C(=O)Nc2ccc(Br)cc2)cc1 (stereo not drawn) [Example 9-1, (E)-N-(2-Amino-phenyl)-3-{4-[(4-bromo-phenylcarbamoyl)-(2-morpholin-4-yl-ethylamino)-methyl]-phenyl}-acrylamide] | 1.0 | 2.2 | 144
2 | 300 | CN(C)CCNC(C(=O)Nc1ccc(Br)cc1)c1ccc(/C=C/C(=O)Nc2ccccc2N)cc1 (stereo not drawn) [Example 9-3, (E)-N-(2-Amino-phenyl)-3-{4-[(4-bromo-phenylcarbamoyl)-(2-dimethylamino-ethylamino)-methyl]-phenyl}-acrylamide] | 1.6 | 1.7 | 152
3 | 2700 | CN(C)C(C(=O)Nc1ccc(C(F)(F)F)cc1)c1ccc(/C=C/C(=O)Nc2ccccc2N)cc1 (stereo not drawn) [Example 9-6, (E)-N-(2-Amino-phenyl)-3-{4-[dimethylamino-(4-trifluoromethyl-phenylcarbamoyl)-methyl]-phenyl}-acrylamide] | 0.9 | 1.7 | 47
4 | 2500 | Nc1ccccc1NC(=O)/C=C/c1ccc(C(C(=O)Nc2ccc(C(F)(F)F)cc2)N2CCNCC2)cc1 (stereo not drawn) [Example 9-7, (E)-N-(2-Amino-phenyl)-3-{4-[piperazin-1-yl-(4-trifluoromethyl-phenylcarbamoyl)-methyl]-phenyl}-acrylamide] | 0.5 | 2.1 | 54
5 | 1100 | Nc1ccccc1NC(=O)/C=C/c1ccc(C(C(=O)Nc2ccc(C(F)(F)F)cc2)N2CCOCC2)cc1 (stereo not drawn) [Example 9-10, (E)-N-(2-Amino-phenyl)-3-{4-[morpholin-4-yl-(4-trifluoromethyl-phenylcarbamoyl)-methyl]-phenyl}-acrylamide] | 1.0 | 1.6 | 80
6 | 900 | Nc1ccccc1NC(=O)/C=C/c1ccc(C(C(=O)Nc2ccc(C(F)(F)F)cc2)N2CCCC2)cc1 (stereo not drawn) [Example 9-11, (E)-N-(2-Amino-phenyl)-3-{4-[pyrrolidin-1-yl-(4-trifluoromethyl-phenylcarbamoyl)-methyl]-phenyl}-acrylamide] | 1.1 | 2.7 | 97
7 | 1900 | CNC(C(=O)Nc1ccc(C(F)(F)F)cc1)c1ccc(/C=C/C(=O)Nc2ccccc2N)cc1 (stereo not drawn) [Example 9-17, (E)-N-(2-Amino-phenyl)-3-{4-[methylamino-(4-trifluoromethyl-phenylcarbamoyl)-methyl]-phenyl}-acrylamide] | 1.3 | 1.9 | 84
8 | 1000 | Nc1ccccc1NC(=O)/C=C/c1ccc(C(NCCC2CCOCC2)C(=O)Nc2ccc(C(F)(F)F)cc2)cc1 (stereo not drawn) [Example 9-18, (E)-N-(2-Amino-phenyl)-3-{4-[[2-(tetrahydro-pyran-4-yl)-ethylamino]-(4-trifluoromethyl-phenylcarbamoyl)-methyl]-phenyl}-acrylamide] | 1.0 | 1.7 | 70

The remaining lines, values behind:

Row | Structure (SMILES) | GI50 [3] [nM] | p21/klf2 (RP3): relative selectivity compared with SNDX-275 [1] | p21/klf2 (RP10): relative selectivity compared with SNDX-275 [1] | p21 (RP3): relative induction potency compared with SNDX-275 [2] [%]
9 | Nc1ccccc1NC(=O)/C=C/c1ccc(C(NCCCN2CCOCC2)C(=O)Nc2ccc(C3CC3)cc2)cc1 (stereo not drawn) [Example 4-41, (E)-N-(2-Amino-phenyl)-3-{4-[(4-cyclopropyl-phenylcarbamoyl)-(3-morpholin-4-yl-propylamino)-methyl]-phenyl}-acrylamide] | 1400 | 3.5 | 2.1 | 156
10 | Nc1ccccc1NC(=O)/C=C/c1ccc(C(NCCN2CCOCC2)C(=O)Nc2ccc(C(F)(F)F)cn2)cc1 (stereo not drawn) [Example 4-43, (E)-N-(2-Amino-phenyl)-3-{4-[(2-morpholin-4-yl-ethylamino)-(5-trifluoromethyl-pyridin-2-ylcarbamoyl)-methyl]-phenyl}-acrylamide] | 2200 | 0.9 | 2.1 | 89
11 | Nc1ccccc1NC(=O)/C=C/c1ccc(C(NCCN2CCOCC2)C(=O)Nc2ccc(C3CC3)cc2)cc1 (stereo not drawn) [Example 4-47, (E)-N-(2-Amino-phenyl)-3-{4-[(4-cyclopropyl-phenylcarbamoyl)-(2-morpholin-4-yl-ethylamino)-methyl]-phenyl}-acrylamide] | 900 | 1.0 | 1.8 | 79
12 | Nc1ccccc1NC(=O)/C=C/c1ccc(C(NCCN2CCCCC2)C(=O)Nc2ccc(OC(F)(F)F)cc2)cc1 (stereo not drawn) [Example 4-48, (E)-N-(2-Amino-phenyl)-3-{4-[(2-piperidin-1-yl-ethylamino)-(4-trifluoromethoxy-phenylcarbamoyl)-methyl]-phenyl}-acrylamide] | 1400 | 1.9 | 1.9 | 130
13 | CN(C)CCNC(C(=O)Nc1ccc(C(F)(F)F)c(F)c1)c1ccc(/C=C/C(=O)Nc2ccccc2N)cc1 (stereo not drawn) [Example 4-49, (E)-N-(2-Amino-phenyl)-3-{4-[(2-dimethylamino-ethylamino)-(3-fluoro-4-trifluoromethyl-phenylcarbamoyl)-methyl]-phenyl}-acrylamide] | 1400 | 1.5 | 1.5 | 128
14 | CC(C)(C)c1ccc(NC(=O)C(NCCO)c2ccc(/C=C/C(=O)Nc3ccccc3N)cc2)cc1 (stereo not drawn) [Example 4-68, (E)-N-(2-Amino-phenyl)-3-{4-[(4-tert-butyl-phenylcarbamoyl)-(2-hydroxy-ethylamino)-methyl]-phenyl}-acrylamide] | 3700 | 0.5 | 1.3 | 41
15 | Nc1ccccc1NC(=O)/C=C/c1ccc(C(NCCO)C(=O)Nc2ccc(C(F)(F)F)cc2)cc1 (stereo not drawn) [Example 4-69, (E)-N-(2-Amino-phenyl)-3-{4-[(2-hydroxy-ethylamino)-(4-trifluoromethyl-phenylcarbamoyl)-methyl]-phenyl}-acrylamide] | 1700 | 1.0 | 2.3 | 117
